The text below walks through data of PMC6172411, “Development of a Quantitative Assay for the Characterization of Human Collectin-11 (CL-11, CL-K1)” (Frontiers in Immunology, 2018).

Structures are written as SMILES.

In assay [1] the target is T1, rCL-11 (recombinant collectin-11, CL-11, CL-K1) (Homo sapiens, UniProt Q9BWP8).
T1 construct: gene COLEC11; no tag stated; homomeric disulfide-linked oligomers of trimers, monomer ~34 kDa reduced
Briefly: co-precipitation with D-mannose-agarose (western blot) and solid-phase binding to coated D-mannose-BSA. As to conditions: Ca2+ required (no binding in EDTA or Mg-EGTA); D-mannose presented as immobilised agarose or BSA conjugate; room temperature. Background: A western blot detects proteins with antibodies after separation by electrophoresis.

Assay [2] deals with T1, rCL-11 (recombinant collectin-11, CL-11, CL-K1). Briefly: solid-phase competition ELISA, inhibition of rCL-11 binding to coated mannan. The settings on record: Ca2+ (TBS-Tw-Ca, 2.5 mM CaCl2), rCL-11 1 ug/ml, mannan-coated plate, room temperature.

T1 sequence (Q9BWP8 26-271): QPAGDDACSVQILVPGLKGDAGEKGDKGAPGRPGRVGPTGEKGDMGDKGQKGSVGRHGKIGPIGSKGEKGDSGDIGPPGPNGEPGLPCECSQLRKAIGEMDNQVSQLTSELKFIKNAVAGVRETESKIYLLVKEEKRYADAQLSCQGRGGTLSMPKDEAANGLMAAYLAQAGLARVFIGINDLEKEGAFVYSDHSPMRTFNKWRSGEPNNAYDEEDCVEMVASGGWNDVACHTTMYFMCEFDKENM

On to `OC[C@H]1OC(O)[C@@H](O)[C@@H](O)[C@@H]1O` (stereo partly drawn) [D-mannose], for which the “co-precipitation with D-mannose-agarose (western blot) and solid-phase binding t” value in assay [1] is “bound to D-mannose and mannan in the presence of calcium”.

Regarding `C[C@@H]1OC(O)[C@@H](O)[C@H](O)[C@@H]1O` (stereo partly drawn) [L-fucose], in assay [2], the IC50 was found to be 36.5 mM.

As usually defined, the IC50 is the concentration that gives 50% inhibition.
